Assay: Displacement of thioflavin-T from amyloid beta (1 to 40) aggregates by thioflavin-T fluorescent dye assay

SMILES | IC50
COc1ccc2nc(/N=N/c3ccc(N(C)C)cc3)sc2c1 | 3200 nM
CCCC[n+]1c(/C=C/c2ccc(N(C)C)cc2)sc2ccccc21 | 160 nM
CCCCCCC[n+]1c(/C=C/c2ccc(N(C)C)cc2)sc2ccccc21 | 93 nM
CN(C)c1ccc(/C=C/c2sc3ccccc3[n+]2Cc2ccccc2)cc1 | 110 nM
CN(C)c1ccc(/C=C/c2sc3ccc(F)cc3[n+]2C)cc1 | 1000 nM
Cc1ccc2sc(/C=C/c3ccc(N(C)C)cc3)[n+](C)c2c1 | 400 nM
Cc1ccc2c(c1)sc(/C=C/c1ccc(N(C)C)cc1)[n+]2C | 180 nM
COc1ccc2c(c1)sc(/C=C/c1ccc(N(C)C)cc1)[n+]2C | 300 nM
CN(C)c1ccc(/C=C/c2sc3cc([N+](=O)[O-])ccc3[n+]2C)cc1 | 1000 nM
CN(C)c1ccc(/N=N/c2nc3ccccc3s2)cc1 | 22000 nM
COc1ccc2c(c1)sc(/N=N/c1ccc(N(C)C)cc1)[n+]2C | 410 nM
CN(C)c1ccc(/N=N/c2sc3ccccc3[n+]2C)cc1 | 1300 nM
CN(C)c1ccc(/C=C/c2sc3ccc(F)cc3[n+]2Cc2ccccc2)cc1 | 170 nM
Cc1ccc2c(c1)sc(/C=C/c1ccc(N(C)C)cc1)[n+]2Cc1ccccc1 | 130 nM
CCCCCCC[n+]1c(/C=C/c2ccc(N(C)C)cc2)sc2cc(OC)ccc21 | 140 nM
CN(C)c1ccc(/C=C/c2sc3ccccc3[n+]2Cc2ccc(F)cc2)cc1 | 120 nM
CN(C)c1ccc(/C=C/c2sc3ccccc3[n+]2Cc2ccc(-c3ccccc3)cc2)cc1 | 240 nM
CN(C)c1ccc(/C=C/c2sc3ccccc3[n+]2Cc2ccccc2-c2ccccc2)cc1 | 100 nM
CN(C)c1ccc(/C=C/c2sc3ccccc3[n+]2Cc2cccc(OC(=O)c3ccccc3)c2)cc1 | 230 nM
CN(C)c1ccc(/C=C/c2sc3ccccc3[n+]2Cc2cccc(Oc3ccccc3)c2)cc1 | 120 nM
CN(C)c1ccc(/C=C/c2sc3ccccc3[n+]2CCCc2ccccc2)cc1 | 200 nM
CN(C)c1ccc(/C=C/c2sc3ccccc3[n+]2C/C=C/c2ccccc2)cc1 | 100 nM
CN(C)c1ccc(/C=C/c2sc3ccccc3[n+]2CCCC(c2ccccc2)c2ccccc2)cc1 | 460 nM

SMILES | IC50
CN(C)c1ccc(/C=C/c2sc3ccccc3[n+]2CCCOCc2ccccc2)cc1 | 140 nM
CN(C)c1ccc(/C=C/c2sc3ccccc3[n+]2CCCCOc2ccccc2)cc1 | 170 nM
CN(C)c1ccc(/C=C/c2sc3ccccc3[n+]2CCCCCc2ccccc2)cc1 | 170 nM
CN(C)c1ccc(/C=C/c2sc3ccccc3[n+]2CCCCCOc2ccccc2)cc1 | 170 nM
CN(C)c1ccc(/C=C/c2sc3ccccc3[n+]2CCCC2CCCCC2)cc1 | 120 nM
CCCCCCC[n+]1c(/C=C/c2ccc(N(CC)CC)cc2)sc2ccccc21 | 140 nM
CCCCCCC[n+]1c(/C=C/c2ccc(N(CCCC)CCCC)cc2)sc2ccccc21 | 600 nM
CCCCCCC[n+]1c(/C=C/c2ccc(-n3cccc3)cc2)sc2ccccc21 | 160 nM
CN(C)c1ccc(/C=C/c2sc3ccc(Cc4ccccc4)c(Cc4ccccc4)c3[n+]2C)cc1 | 210 nM
CN(C)c1ccc(/C=C/c2nc3cc(Cl)ccc3s2)cc1 | > 100000 nM
CN(C)c1ccc(/C=C/c2nc3ccc(N(C)C)cc3s2)cc1 | > 100000 nM
CN(C)c1ccc(/C=C/c2sc3ccc(Cl)cc3[n+]2C)cc1 | 430 nM
CN(C)c1ccc(/C=C/c2sc3cc(Cc4ccccc4)c(Cc4ccccc4)cc3[n+]2C)cc1 | 120 nM
CN(C)c1ccc(/C=C/c2sc3c(Cc4ccccc4)c(Cc4ccccc4)ccc3[n+]2C)cc1 | 210 nM
CN(C)c1ccc(/C=C/c2sc3ccccc3[n+]2Cc2ccc3ccccc3c2)cc1 | 120 nM
CCCCCCC[n+]1c(/C=C/c2ccc(N(C)C)c3ccccc23)sc2ccccc21 | 160 nM
COc1ccc2c(c1)sc(/C=C/c1ccc(N(C)C)c3ccccc13)[n+]2C | 430 nM
Nc1ccc(/N=N/c2nc3ccccc3s2)c2ccccc12 | 120 nM
COc1ccc2nc(/N=N/c3ccc(N(C)C)c4ccccc34)sc2c1 | 2500 nM
CN(C)c1ccc(/C=C/c2sc3ccccc3[n+]2C)cc1 | 1000 nM
CC[n+]1c(/C=C/c2ccc(N(C)C)cc2)sc2ccccc21 | 400 nM
CN(C)c1ccc(/C=C/c2nc3ccccc3s2)cc1 | > 100000 nM
